Experimental data: US7345180B2, “Compound inhibiting dipeptidyl peptidase IV” (Sanwa Kagaku Kenkyusho Co., Ltd., priority 2003, dated 2008)

Legend:
[1] = target: T1, DPP-IV (Homo sapiens, UniProt P27487); assay: DPP-IV inhibition, Gly-Pro-MCA substrate, human plasma as enzyme source (Pharmacological Test Example 1); assay type: biochemical; conditions: 30 minutes at room temperature
T1 construct: from tissue; host or cells: human plasma (diluted 30-fold)
Protocol: In screening of DPP-IV inhibitor, the following method using glycyl-proline-4-methylcumalyl-7-amide (Gly-Pro-MCA) as substrate was used.
There after, human plasma (20 μl) diluted30-fold with the measurement buffer was added to each well, stirred and reacted at room temperature for 30 minutes in the dark.
Inhibitory activity on DPP-IV=100×(1−(Fs−Fb)/F100−Fb) F100:fluorescence intensity obtained by reaction with plasma. Fb:fluorescence intensity of a blank where the reaction was carried out with the reaction terminating solution added. Fs:fluorescence intensity obtained by adding the test substance.

[2] = Oral glucose load in fasted rats: blood glucose AUC0-60 min and plasma insulin level (Pharmacological Test Example 2); assay type: in vivo, Wistar/ST male rats; conditions: Compound A 10 mg/kg, 10 minutes after administration
Protocol: Wistar/ST male rats (Japan SLC, Inc.) were acclimated for 5 days or more (8-week-old when used) and then fasted overnight. […] From the tip end of each tail, blood was collected with time, and plasma was separated, and blood glucose and insulin levels were measured. The blood level was measured by using Glutest (Sanwa Kagaku Kenkyusho Co., Ltd.), and the plasma insulin level was measured by using a commercially available EAI kit (Shibayagi Co., Ltd.).
The blood glucose level was expressed in terms of area-under-curve (AUC0-60 min) (min·mg/dl) from 0 min. after sugar administration to 60 minutes, wherein the blood glucose level in a sample obtained by blood collection before the test was substituted for the blood glucose level at 0 min. The plasma insulin level was indicated by the plasma insulin level (pg/ml) 10 minutes after administration of the compound.

T1 sequence (P27487 39-766 limits assumed): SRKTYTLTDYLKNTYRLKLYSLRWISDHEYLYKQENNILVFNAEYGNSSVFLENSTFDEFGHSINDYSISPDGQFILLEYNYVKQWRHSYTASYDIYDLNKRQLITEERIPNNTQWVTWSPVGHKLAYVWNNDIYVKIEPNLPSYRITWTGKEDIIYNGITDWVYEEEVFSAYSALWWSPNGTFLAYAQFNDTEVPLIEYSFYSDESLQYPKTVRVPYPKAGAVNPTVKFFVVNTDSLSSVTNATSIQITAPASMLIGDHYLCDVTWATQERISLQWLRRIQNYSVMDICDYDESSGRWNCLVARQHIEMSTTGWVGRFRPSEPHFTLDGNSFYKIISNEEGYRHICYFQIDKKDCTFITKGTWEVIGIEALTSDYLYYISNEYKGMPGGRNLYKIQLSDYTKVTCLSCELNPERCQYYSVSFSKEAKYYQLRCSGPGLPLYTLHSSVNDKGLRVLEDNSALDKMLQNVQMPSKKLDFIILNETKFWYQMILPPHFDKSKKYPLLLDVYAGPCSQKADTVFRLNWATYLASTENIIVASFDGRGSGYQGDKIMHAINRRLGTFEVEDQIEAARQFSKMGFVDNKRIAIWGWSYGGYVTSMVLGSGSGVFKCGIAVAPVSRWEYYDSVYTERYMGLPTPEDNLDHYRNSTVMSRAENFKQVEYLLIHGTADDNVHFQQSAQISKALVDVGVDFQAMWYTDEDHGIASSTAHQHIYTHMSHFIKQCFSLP

SMILES	IC50 [1] [nM]	further results
Cn1ccc2ccc(C(=O)NCC(C)(C)NCC(=O)N3CCC[C@H]3C#N)cc21 [Example 21]	28	
CC(C)(CNC(=O)c1ccc2c(ccn2CO)c1)NCC(=O)N1CCC[C@H]1C#N [Example 37]	17	
CC(C)(CC(=O)N1Cc2ccc(F)cc2C1)NCC(=O)N1CCC[C@H]1C#N [Example 63]	18	
CC(C)(CC(=O)N1Cc2cccc(O)c2C1)NCC(=O)N1CCC[C@H]1C#N [Example 70]	32	
COc1ccc2c(c1)c(C(=O)NCC(C)(C)NCC(=O)N1CCC[C@H]1C#N)cn2C [Example 27]	21	
CC(C)(CNC(=O)c1cn(COCc2ccccc2)c2ccccc12)NCC(=O)N1CCC[C@H]1C#N [Example 33]	71	
N#C[C@@H]1CCCN1C(=O)CNCCNC(=O)c1cnc2n(c1=O)CCS2 [Compound 126]	31	
COc1cccc2c1CN(C(=O)CC(C)(C)NCC(=O)N1CCC[C@H]1C#N)C2 [Example 78]	15	
CCC(C)C(N)C(=O)N1CCSC1 (stereo not shown) [Compound A, Isoleucyl thiazolidide, reference compound]		Insulin (plasma insulin level) ([2]; first experiment, Example 1 3 mg/kg, water group 1692 ± 583): 2994 ± 310 pg/mL; Insulin (plasma insulin level) ([2]; second experiment, Example 61 1 mg/kg, water group 2008 ± 666): 3670 ± 827 pg/mL
COc1cc(OC)c2cc(C(=O)NCC(C)(C)NCC(=O)N3CCC[C@H]3C#N)n(C)c2c1 [Example 25]	48	
Cn1cc(C(=O)NCC(C)(C)NCC(=O)N2CCC[C@H]2C#N)c2ccccc21 [Example 18]	36	
N#C[C@@H]1CCCN1C(=O)CNCCNC(=O)c1ccc2ncsc2c1 [Example 95]	13	
CC(C)(CNC(=O)c1c[nH]c2ccccc12)NCC(=O)N1CCC[C@H]1C#N [Example 15]	28	
COc1cc(C)cc2c1CN(C(=O)CC(C)(C)NCC(=O)N1CCC[C@H]1C#N)C2 [Example 76]	22	
CC(C)(CNC(=O)c1ccc2ncsc2c1)NCC(=O)N1CCC[C@H]1C#N [Example 51]	26	
Cc1nn(C)c2ncc(C(=O)NCCNCC(=O)N3CCC[C@H]3C#N)cc12 [Compound 122]	26	
CC(C)(CNC(=O)c1ccc2[nH]c(=O)sc2c1)NCC(=O)N1CCC[C@H]1C#N [Example 55]	24	
CC(C)Cn1cc(C(=O)NCC(C)(C)NCC(=O)N2CCC[C@H]2C#N)c2ccccc21 [Example 30]	89	
CN1CCc2cc(C(=O)NCC(C)(C)NCC(=O)N3CCC[C@H]3C#N)ccc21 [Example 44]	37	
COc1c(C(=O)NCC(C)(C)NCC(=O)N2CCC[C@H]2C#N)c(C)nc2cc(-c3ccccc3)nn12 [Example 10]	85	
COCn1cc(C(=O)NCC(C)(C)NCC(=O)N2CCC[C@H]2C#N)c2ccccc21 [Example 34]	23	
CC(C)(CC(=O)N1Cc2ccc(Br)cc2C1)NCC(=O)N1CCC[C@H]1C#N [Example 64]	24	
N#C[C@@H]1CCCN1C(=O)CNCCC(=O)Nc1nc2ccccc2s1 [Example 93]	62	

SMILES	IC50 [1] [nM]	further results
CC(=O)OCn1cc(C(=O)NCC(C)(C)NCC(=O)N2CCC[C@H]2C#N)c2ccccc21 [Example 35]	37	
Cn1ccc2cc(C(=O)NCC(C)(C)NCC(=O)N3CCC[C@H]3C#N)ccc21 [Example 20]	52	
CC(C)Cn1ccc2cc(C(=O)NCC(C)(C)NCC(=O)N3CCC[C@H]3C#N)ccc21 [Example 32]	48	
CC(C)(CC(=O)N1Cc2ccc(Cl)cc2C1)NCC(=O)N1CCC[C@H]1C#N [Example 65]	11	
CC(C)(C)Cn1ccc2cc(C(=O)NCC(C)(C)NCC(=O)N3CCC[C@H]3C#N)ccc21 [Example 31]	49	
Cc1nc2ccc(C(=O)NCCNCC(=O)N3CCC[C@H]3C#N)cc2s1 [Example 101]	66	
Cc1nc2ccc(C(=O)NCC(C)(C)NCC(=O)N3CCC[C@H]3C#N)cc2o1 [Example 57]	35	
Cn1ccc2c(C(=O)NCC(C)(C)NCC(=O)N3CCC[C@H]3C#N)cccc21 [Example 19]	50	
COc1ccc2c(c1)c(C(=O)NCC(C)(C)NCC(=O)N1CCC[C@H]1C#N)c(C)n2C [Example 26]	33	
CC(C)(CC(=O)N1Cc2c(Cl)ccc(Cl)c2C1)NCC(=O)N1CCC[C@H]1C#N [Example 69]	21	
CC(C)(CC(=O)N1Cc2cc(Cl)c(Cl)cc2C1)NCC(=O)N1CCC[C@H]1C#N [Example 74]	44	
CC(C)(CNC(=O)c1ccc2c(ccn2CC(=O)OC(C)(C)C)c1)NCC(=O)N1CCC[C@H]1C#N [Example 43]	16	
CC(=O)N1CCc2cc(C(=O)NCC(C)(C)NCC(=O)N3CCC[C@H]3C#N)ccc21 [Example 46]	19	
CC(=O)n1ccc2cc(C(=O)NCC(C)(C)NCC(=O)N3CCC[C@H]3C#N)ccc21 [Example 47]	24	
CC(C)(CNC(=O)c1ccc2c(ccn2COCc2ccccc2)c1)NCC(=O)N1CCC[C@H]1C#N [Example 36]	45	
COc1ccc2cc(C(=O)NCC(C)(C)NCC(=O)N3CCC[C@H]3C#N)n(C)c2c1 [Example 24]	43	
N#C[C@@H]1CCCN1C(=O)CNCCCCNC(=O)c1ccc2ncsc2c1 [Example 105]	31	
CC(C)(CC(=O)N1Cc2ccc(C(F)(F)F)cc2C1)NCC(=O)N1CCC[C@H]1C#N [Example 72]	39	
COc1c(C(=O)NCC(C)(C)NCC(=O)N2CCC[C@H]2C#N)c(C)nc2cc(C)nn12 [Example 4]	87	
CC(C)(CNC(=O)c1ccc2[nH]ccc2c1)NCC(=O)N1CCC[C@H]1C#N [Example 16]	33	
Cc1cc2nc(O)c(C(=O)NCC(C)(C)NCC(=O)N3CCC[C@H]3C#N)cn2n1 [Example 11]	68	
CC(C)(CCC(=O)N1Cc2ccccc2C1)NCC(=O)N1CCC[C@H]1C#N [Example 82]	17	
CC(=O)n1cc(C(=O)NCC(C)(C)NCC(=O)N2CCC[C@H]2C#N)c2ccccc21 [Example 45]	28	

SMILES	IC50 [1] [nM]	further results
Cn1cnc2cc(C(=O)NCC(C)(C)NCC(=O)N3CCC[C@H]3C#N)ccc21 [Example 56]	30	
CC(C)(CNC(=O)C1Cc2ccccc2C1)NCC(=O)N1CCC[C@H]1C#N [Example 59]	50	
CC(C)(CNC(=O)c1ccc2c(ccn2C(=O)C(C)(C)C)c1)NCC(=O)N1CCC[C@H]1C#N [Example 49]	20	
COc1ccc2c(c1)c(C(=O)NCC(C)(C)NCC(=O)N1CCC[C@H]1C#N)cn2CC(C)(C)C [Example 39]	73	
COc1cccc2c1cc(C(=O)NCC(C)(C)NCC(=O)N1CCC[C@H]1C#N)n2C [Example 23]	82	
CC(C)(CNC(=O)c1ccc2c(ccn2C(=O)c2ccccc2)c1)NCC(=O)N1CCC[C@H]1C#N [Example 48]	31	
COc1cc(C(=O)NCC(C)(C)NCC(=O)N2CCC[C@H]2C#N)cc2ccn(C)c12 [Example 28]	78	
COc1cc2ncsc2cc1C(=O)NCCNCC(=O)N1CCC[C@H]1C#N [Example 102]	90	
CC(C)(CC(=O)N1Cc2cccc(F)c2C1)NCC(=O)N1CCC[C@H]1C#N [Example 67]	7	
N#C[C@@H]1CCCN1C(=O)CNCCC(=O)N1Cc2ccccc2C1 [Example 89]	25	
CC(C)(CC(=O)N1Cc2ccc(CO)cc2C1)NCC(=O)N1CCC[C@H]1C#N [Example 71]	2	
CC(C)(CC(=O)N1Cc2c(Cl)c(Cl)c(Cl)c(Cl)c2C1)NCC(=O)N1CCC[C@H]1C#N [Example 73]	94	
COc1cc(C(=O)NCC(C)(C)NCC(=O)N2CCC[C@H]2C#N)cc2sc(C(F)(F)F)nc12 [Example 53]	48	
Cn1ccc2cccc(C(=O)NCC(C)(C)NCC(=O)N3CCC[C@H]3C#N)c21 [Example 22]	73	
Cc1cc(O)c2c(c1)CN(C(=O)CC(C)(C)NCC(=O)N1CCC[C@H]1C#N)C2 [Example 75]	14	
CC(C)(CNC(=O)c1ccc2c(c1)CCN2C(=O)C(F)(F)F)NCC(=O)N1CCC[C@H]1C#N [Example 50]	20	
COCn1ccc2cc(C(=O)NCC(C)(C)NCC(=O)N3CCC[C@H]3C#N)ccc21 [Example 38]	25	
CC(C)(CC(=O)N1Cc2ccc(C(C)(C)C)cc2C1)NCC(=O)N1CCC[C@H]1C#N [Example 66]	50	
CC(C)(CNC(=O)c1cn(COC(=O)C(C)(C)C)c2ccccc12)NCC(=O)N1CCC[C@H]1C#N [Example 42]	27	
CC(C)(C)Cn1cc(C(=O)NCC(C)(C)NCC(=O)N2CCC[C@H]2C#N)c2cc(O)ccc21 [Example 41]	25	
CC(C)(CNC(=O)c1cnc2cc(CO)nn2c1)NCC(=O)N1CCC[C@H]1C#N [Example 13]	24	
N#C[C@@H]1CCCN1C(=O)CNCCC(=O)N1CCc2ccccc21 [Example 91]	82	
Cc1cccc2c1CN(C(=O)CC(C)(C)NCC(=O)N1CCC[C@H]1C#N)C2 [Example 68]	16	
